Measured values: PMC10988834, “Neq2X7: a multi-purpose and open-source fusion DNA polymerase for advanced DNA engineering and diagnostics PCR” (BMC Biotechnology, 2024)

Target: T1, Neq2X (Nanoarchaeum equitans, UniProt Q74M37+Q74N74, Q74N74:A523R/Q74N74:N540R)
T1 construct: gene NEQ068; double mutant Neq DNA polymerase without Sso7d, N-terminal 6xHis; one polypeptide, E. coli Rosetta2 (DE3) pLysS
Test: PCR amplification, agarose gel
Assay type: biochemical
Details: with dATP, dCTP, dGTP, 1 min/kb, extension 72 °C

T1 sequence (Q74M37 entry or part of it): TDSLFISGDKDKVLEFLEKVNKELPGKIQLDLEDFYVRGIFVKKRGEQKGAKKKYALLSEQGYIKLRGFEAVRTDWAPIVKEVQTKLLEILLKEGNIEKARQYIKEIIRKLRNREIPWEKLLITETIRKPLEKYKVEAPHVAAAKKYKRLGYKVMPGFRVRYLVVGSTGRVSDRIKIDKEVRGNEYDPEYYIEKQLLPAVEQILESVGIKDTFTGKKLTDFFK
T1 sequence (Q74N74 entry or part of it A523R/N540R): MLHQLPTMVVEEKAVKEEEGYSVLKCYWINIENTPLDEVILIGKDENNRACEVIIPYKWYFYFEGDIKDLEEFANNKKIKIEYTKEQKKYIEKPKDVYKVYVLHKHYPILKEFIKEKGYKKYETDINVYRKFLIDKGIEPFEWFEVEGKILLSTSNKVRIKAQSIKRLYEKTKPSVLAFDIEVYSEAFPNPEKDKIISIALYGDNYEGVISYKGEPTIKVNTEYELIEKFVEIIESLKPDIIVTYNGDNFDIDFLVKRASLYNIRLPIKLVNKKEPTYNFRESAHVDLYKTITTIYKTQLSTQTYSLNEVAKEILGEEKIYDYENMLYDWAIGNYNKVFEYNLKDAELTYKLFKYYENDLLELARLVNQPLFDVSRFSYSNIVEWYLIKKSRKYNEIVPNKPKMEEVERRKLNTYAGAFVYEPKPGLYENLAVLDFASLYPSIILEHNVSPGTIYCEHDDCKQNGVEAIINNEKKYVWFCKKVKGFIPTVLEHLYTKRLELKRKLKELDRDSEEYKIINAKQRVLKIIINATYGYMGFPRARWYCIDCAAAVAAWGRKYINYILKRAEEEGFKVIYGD

## Cc1cn([C@H]2C[C@H](O)[C@@H](COP(=O)(O)OP(=O)(O)OP(=O)(O)O)O2)c(=O)[nH]c1=O [dTTP]
3-12 kb amplicons
  PCR amplification, agarose gel: all three polymerases amplified DNA to a detectable level

## O=c1ccn([C@H]2C[C@H](O)[C@@H](COP(=O)(O)OP(=O)(O)OP(=O)(O)O)O2)c(=O)[nH]1 [dUTP]
dUTP fully replacing dTTP, 3 kb amplicon
  PCR amplification, agarose gel: all tested polymerases were able to generate a detectable PCR product
